Paper PMC10254170, “Diastereoselective Synthesis of the Borylated D-Galactose Monosaccharide 3-Boronic-3-Deoxy-D-Galactose and Biological Evaluation in Glycosidase Inhibition and in Cancer for Boron Neutron Capture Therapy (BNCT)” (Molecules, 2023)

Assays:
[1] = test system: MCF-7 (breast carcinoma); test: Cancer screening (MTT growth inhibition), MCF-7; type: cell-based; conditions: 25 µM of drug, 72 h, n = 3, mean ± SEM
Experimental: (§1) All test agents were prepared as stock solutions (20 mM) in dimethyl sulfoxide (DMSO) and stored at −20 °C. Cell lines used in the study included: HT29 (colorectal carcinoma), U87 and SJ-G2 (glioblastoma), MCF-7 (breast carcinoma), A2780 (ovarian carcinoma), H460 (lung carcinoma), A431 (skin carcinoma), Du145 (prostate carcinoma), BE2-C (neuroblastoma), MiaPaCa-2 (pancreatic carcinoma), SMA560 (spontaneous murine astrocytoma), and ADDP (Cis Res Ovarian), together with one non-tumor-derived normal breast cell line (MCF10A). All cell lines were incubated in a humidified atmosphere with 5 % CO2 at 37 °C. The cancer cell lines were maintained in Dulbecco’s modified Eagle’s medium (DMEM; Sigma, Australia) supplemented with fetal bovine serum (10%), sodium pyruvate (10 mM), penicillin (100 IUmL^−1), streptomycin (100 µg mL^−1), and L-glutamine (2 mM).
(§2) Growth inhibition was determined by plating cells in duplicate in medium (100 µL) at a density of 2500–4000 cells per well in 96-well plates. On day 0 (24 h after plating), when the cells are in logarithmic growth, medium (100 µL) with or without the test agent was added to each well. After 72 h of drug exposure, growth inhibitory effects were evaluated using the (3-(4,5-dimethyltiazol-2-yl)-2,5-diphenyltetrazolium bromide) (MTT) assay and absorbance read at 540 nm. The percentage growth inhibition was calculated at a fixed concentration of 25 µM, based on the difference between the optical density values on day 0 and those at the end of drug exposure. Each data point is the mean ± the standard error of the mean (SEM) calculated from three replicates, which were performed on separate occasions and in separate cell line passages.

[2] = test system: Du145 (prostate carcinoma); test: Cancer screening (MTT growth inhibition), Du145; type: cell-based; conditions: 25 µM of drug, 72 h, n = 3, mean ± SEM
Experimental: as §1, §2

[3] = test system: rat intestinal maltase α-glucosidase; test: Glycosidase inhibition, rat intestinal maltase; type: biochemical; conditions: for inhibition %: in methanol
Source text: (§3) Glycosidase modulation studies need to explore selectivity as well as potency. Our drugs and controls are therefore screened against a panel of glycosidases in methanol (Table 1) to identify the glycosidase-related disease area(s), selectivity profile, and potency of biological action for each drug. The presence of organic boron covalently bonded to the drug structure also grants a reduced toxicity profile. Following the glycosidase inhibition range recommendations, an IC50 value >250 μm denotes weak inhibition, 100–249 μm denotes moderate inhibition, 10–99 μm good inhibition, 0.1–9 μm potent inhibition, and <0.1 μm very potent inhibition. […] Our boronated D-galactose 7 represents a novel lead in glycosidase inhibition.
(§4) The glycosidases screened are the following: rice α-glucosidase, yeast α-glucosidase, Bacillus α-glucosidase, rat intestinal maltase α-glucosidase, almond β-glucosidase, bovine liver β-glucosidase, coffee beans α-galactosidase, bovine liver β-galactosidase, Jack bean α-mannosidase, snail β-mannosidase, Penicillium decumbens α-L-rhamnosidase, bovine kidney α-L-fucosidase, Eschierichia coli β-glucuronidase, bovine liver β-glucuronidase, porcine kidney trehalase, Aspergillus niger amyloglucosidase, and bovine kidney N-acetyl-β-glucosaminidase. The disease areas for each glycosidase are summarized in [1].
(§5) Brush border membranes were prepared from the rat small intestine according to the method of Kessler et al. and were assayed at pH 6.8 for rat intestinal maltase using maltose. For rat intestinal maltase, porcine kidney trehalase, and A. niger amyloglucosidase activities, the reaction mixture contained 25 mM maltose and the appropriate amount of enzyme, and the incubations were performed for 10–30 min at 37 °C. The reaction was stopped by heating at 100 °C for 3 min. After centrifugation (600 g; 10 min), the resulting reaction mixture was added to the Glucose CII-test Wako (Wako Pure Chemical Ind., Osaka, Japan). The absorbance at 505 nm was measured to determine the amount of the released D-glucose. Other glycosidase activities were determined using an appropriate para-nitrophenyl glycoside as substrate at the optimum pH of each enzyme. The reaction mixture contained 2 mM of the substrate and the appropriate amount of enzyme. The reaction was stopped by the addition of 400 mM Na2CO3. The released para-nitrophenol was measured spectrometrically at 400 nm. All reactions run in methanol.

[4] = target: T1, E. coli β-glucuronidase (Escherichia coli, UniProt P05804); test: Glycosidase inhibition, E. coli β-glucuronidase; type: biochemical; conditions: in methanol
T1 construct: purchased Sigma-Aldrich Co
T1 sequence (P05804 whole entry): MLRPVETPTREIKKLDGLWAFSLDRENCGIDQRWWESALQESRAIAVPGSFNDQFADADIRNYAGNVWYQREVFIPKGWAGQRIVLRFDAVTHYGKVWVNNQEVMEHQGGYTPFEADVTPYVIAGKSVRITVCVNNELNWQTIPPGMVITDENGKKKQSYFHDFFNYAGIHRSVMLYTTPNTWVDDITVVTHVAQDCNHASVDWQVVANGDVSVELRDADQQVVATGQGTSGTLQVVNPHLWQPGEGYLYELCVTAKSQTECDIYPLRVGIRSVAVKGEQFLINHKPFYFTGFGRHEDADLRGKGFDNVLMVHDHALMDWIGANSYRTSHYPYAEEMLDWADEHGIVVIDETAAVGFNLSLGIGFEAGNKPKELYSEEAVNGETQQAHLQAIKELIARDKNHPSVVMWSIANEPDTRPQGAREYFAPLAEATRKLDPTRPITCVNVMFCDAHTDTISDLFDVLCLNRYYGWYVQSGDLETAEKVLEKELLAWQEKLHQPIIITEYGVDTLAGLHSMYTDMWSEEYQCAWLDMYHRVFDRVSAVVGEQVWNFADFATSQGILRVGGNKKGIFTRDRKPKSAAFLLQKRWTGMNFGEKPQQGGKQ
Source text: as §3, §4
(§6) The enzymes α-glucosidase (from yeast), β-glucosidases (from almond and bovine liver), α-galactosidase (from coffee beans), β-galactosidase (from bovine liver), α-mannosidase (from Jack bean), β-mannosidase (from snail), α-L-rhamnosidase (from Penicillium decumbens), α-L-fucosidase (from bovine kidney), trehalase (from porcine kidney), β-glucuronidases (from E. coli and bovine liver), amyloglucosidase (from A. niger), para-nitrophenyl glycosides, and various disaccharides were purchased from Sigma-Aldrich Co.
as §5

[5] = test system: yeast α-glucosidase; test: Glycosidase inhibition, yeast α-glucosidase; type: biochemical; conditions: for inhibition %: in methanol
Source text: as §3, §4, §6, §5

[6] = test system: MCF10A (non-tumor-derived normal breast cell line); test: Cancer screening (MTT growth inhibition), MCF10A; type: cell-based; conditions: 25 µM of drug, 72 h, n = 3, mean ± SEM
Experimental: as §1
The non-cancer MCF10A cell line was maintained in DMEM:F12 (1:1) cell culture media, 5% heat inactivated horse serum, and supplemented with penicillin (50 IUmL^−1), streptomycin (50 µg mL^−1), HEPES (20 mM), L-glutamine (2 mM), epidermal growth factor (20 ng mL^−1), hydrocortisone (500 ng mL^−1), cholera toxin (100 ng mL^−1), and insulin ([…]).
as §2

[7] = target: T2, coffee beans α-galactosidase (Coffea arabica, UniProt Q42656); test: Glycosidase inhibition, coffee beans α-galactosidase; type: biochemical; conditions: in methanol
T2 construct: purchased Sigma-Aldrich Co
T2 sequence (Q42656 16-378): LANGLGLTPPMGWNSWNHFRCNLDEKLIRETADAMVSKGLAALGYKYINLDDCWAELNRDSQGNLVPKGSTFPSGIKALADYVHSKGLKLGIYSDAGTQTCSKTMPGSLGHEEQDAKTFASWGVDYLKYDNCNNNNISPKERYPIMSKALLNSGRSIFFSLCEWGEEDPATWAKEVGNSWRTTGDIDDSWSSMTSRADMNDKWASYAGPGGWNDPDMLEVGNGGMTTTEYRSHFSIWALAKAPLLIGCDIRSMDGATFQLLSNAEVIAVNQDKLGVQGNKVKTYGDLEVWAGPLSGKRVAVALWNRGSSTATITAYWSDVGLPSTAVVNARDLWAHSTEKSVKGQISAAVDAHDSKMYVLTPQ
Source text: as §3, §4, §6, §5

[8] = test system: H460 (lung carcinoma); test: Cancer screening (MTT growth inhibition), H460; type: cell-based; conditions: 25 µM of drug, 72 h, n = 3, mean ± SEM
Experimental: as §1, §2

[9] = test system: SJ-G2 (glioblastoma); test: Cancer screening (MTT growth inhibition), SJ-G2; type: cell-based; conditions: 25 µM of drug, 72 h, n = 3, mean ± SEM
Experimental: as §1, §2

[10] = test system: Penicillium decumbens α-L-rhamnosidase; test: Glycosidase inhibition, Penicillium decumbens α-L-rhamnosidase; type: biochemical; conditions: for inhibition %: in methanol
Source text: as §3, §4, §6, §5

[11] = target: rice α-glucosidase (Oryza sativa subsp. japonica, UniProt Q653V7); test: Glycosidase inhibition, rice α-glucosidase; type: biochemical; conditions: for inhibition %: in methanol
Sequence of rice α-glucosidase (Q653V7 34-885): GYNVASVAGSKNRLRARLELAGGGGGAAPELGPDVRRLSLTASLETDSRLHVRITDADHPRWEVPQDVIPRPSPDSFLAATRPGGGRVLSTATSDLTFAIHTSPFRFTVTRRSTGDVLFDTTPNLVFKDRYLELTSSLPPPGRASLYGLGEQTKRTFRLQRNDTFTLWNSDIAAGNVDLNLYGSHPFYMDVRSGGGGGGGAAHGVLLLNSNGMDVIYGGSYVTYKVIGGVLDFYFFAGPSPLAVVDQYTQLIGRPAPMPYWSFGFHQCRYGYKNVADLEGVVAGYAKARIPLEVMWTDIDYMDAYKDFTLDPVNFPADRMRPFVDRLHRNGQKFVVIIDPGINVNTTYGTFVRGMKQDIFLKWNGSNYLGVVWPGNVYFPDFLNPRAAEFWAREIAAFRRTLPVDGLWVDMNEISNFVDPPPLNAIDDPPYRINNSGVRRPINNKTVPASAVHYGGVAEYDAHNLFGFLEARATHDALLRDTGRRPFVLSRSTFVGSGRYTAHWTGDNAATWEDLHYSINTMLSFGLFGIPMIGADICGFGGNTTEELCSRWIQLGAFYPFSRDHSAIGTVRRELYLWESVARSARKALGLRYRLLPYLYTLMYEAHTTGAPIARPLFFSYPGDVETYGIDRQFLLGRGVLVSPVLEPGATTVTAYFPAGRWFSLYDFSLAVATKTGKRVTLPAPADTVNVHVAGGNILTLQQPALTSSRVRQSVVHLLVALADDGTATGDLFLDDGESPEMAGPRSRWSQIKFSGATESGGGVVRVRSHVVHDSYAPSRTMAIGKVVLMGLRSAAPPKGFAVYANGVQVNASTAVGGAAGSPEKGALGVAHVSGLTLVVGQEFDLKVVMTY
Source text: as §3, §4, §5

[12] = test system: HT29 (colorectal carcinoma); test: Cancer screening (MTT growth inhibition), HT29; type: cell-based; conditions: 25 µM of drug, 72 h, n = 3, mean ± SEM
Experimental: as §1, §2

[13] = test system: BE2-C (neuroblastoma); test: Cancer screening (MTT growth inhibition), BE2-C; type: cell-based; conditions: 25 µM of drug, 72 h, n = 3, mean ± SEM
Experimental: as §1, §2

[14] = test system: bovine liver β-galactosidase; test: Glycosidase inhibition, bovine liver β-galactosidase; type: biochemical; conditions: for inhibition %: in methanol
Source text: as §3, §4, §6, §5

[15] = test system: MiaPaCa-2 (pancreatic carcinoma); test: Cancer screening (MTT growth inhibition), MIA-Pa-Ca2; type: cell-based; conditions: 25 µM of drug, 72 h, n = 3, mean ± SEM
Experimental: as §1, §2

[16] = test system: snail β-mannosidase; test: Glycosidase inhibition, snail β-mannosidase; type: biochemical; conditions: for inhibition %: in methanol
Source text: as §3, §4, §6, §5

N[C@@H](Cc1ccc(B(O)O)cc1)C(=O)O [^10B-BPA]
Percentage (%) cell growth inhibition [1]: 1 ± 3% | Percentage (%) cell growth inhibition [2]: 15 ± 9% | NI: No inhibition ([3]; at 100 μM): NI (No inhibition (less than 50% inhibition at 100 μM)) | inhibition % ([3]; at 100 μM): 0% | inhibition % ([4]; at 100 μM): 2.4% | NI: No inhibition ([5]; at 100 μM): NI (No inhibition (less than 50% inhibition at 100 μM)) | inhibition % ([5]; at 100 μM): 0% | Percentage (%) cell growth inhibition [6]: <0% | inhibition % ([7]; at 100 μM): 1.2% | Percentage (%) cell growth inhibition [8]: 8 ± 5% | Percentage (%) cell growth inhibition [9]: 5 ± 10% | NI: No inhibition ([10]; at 100 μM): NI (No inhibition (less than 50% inhibition at 100 μM)) | inhibition % ([10]; at 100 μM): 0% | NI: No inhibition ([11]; at 100 μM): NI (No inhibition (less than 50% inhibition at 100 μM)) | inhibition % ([11]; at 100 μM): 0% | Percentage (%) cell growth inhibition [12]: 15 ± 4% | Percentage (%) cell growth inhibition [13]: 10 ± 6% | NI: No inhibition ([14]; at 100 μM): NI (No inhibition (less than 50% inhibition at 100 μM)) | inhibition % ([14]; at 100 μM): 0% | Percentage (%) cell growth inhibition [15]: 11 ± 3% | NI: No inhibition ([16]; at 100 μM): NI (No inhibition (less than 50% inhibition at 100 μM)) | inhibition % ([16]; at 100 μM): 0.3%

Borocaptate sodium [BSH]
Percentage (%) cell growth inhibition [1]: 15 ± 3% | Percentage (%) cell growth inhibition [2]: 0 ± 8% | NI: No inhibition ([3]; at 1000 μM): NI (No inhibition (less than 50% inhibition at 1000 μM)) | inhibition % ([3]; at 1000 μM): 0% | inhibition % ([4]; at 1000 μM): 6% | NI: No inhibition ([5]; at 1000 μM): NI (No inhibition (less than 50% inhibition at 1000 μM)) | inhibition % ([5]; at 1000 μM): 6.9% | Percentage (%) cell growth inhibition [6]: 8 ± 3% | inhibition % ([7]; at 1000 μM): 12.3% | Percentage (%) cell growth inhibition [8]: 8 ± 2% | Percentage (%) cell growth inhibition [9]: 3 ± 8% | NI: No inhibition ([10]; at 1000 μM): NI (No inhibition (less than 50% inhibition at 1000 μM)) | inhibition % ([10]; at 1000 μM): 0.2% | NI: No inhibition ([11]; at 1000 μM): NI (No inhibition (less than 50% inhibition at 1000 μM)) | inhibition % ([11]; at 1000 μM): 0% | Percentage (%) cell growth inhibition [12]: 3 ± 2% | Percentage (%) cell growth inhibition [13]: 10 ± 6% | NI: No inhibition ([14]; at 1000 μM): NI (No inhibition (less than 50% inhibition at 1000 μM)) | inhibition % ([14]; at 1000 μM): 0% | Percentage (%) cell growth inhibition [15]: 2 ± 6% | NI: No inhibition ([16]; at 1000 μM): NI (No inhibition (less than 50% inhibition at 1000 μM)) | inhibition % ([16]; at 1000 μM): 19.2%
